Results from patent publication US11912686B2 (Gilead Sciences, Inc., priority 2020, dated 2024).

Each molecule was assayed against human LPAR1 (Homo sapiens (Human), UniProt Q92633) (assay: LPAR1 intracellular calcium mobilization assay (antagonist mode, FLIPR)). Conditions: CHO-K1 EDG2 cells expressing human LPAR1, LPA 18:2 at EC80 (100 nM), test compound 0.5 nM to 10 μM.
Type: cell-based

Sequence of human LPAR1 (Q92633 whole entry): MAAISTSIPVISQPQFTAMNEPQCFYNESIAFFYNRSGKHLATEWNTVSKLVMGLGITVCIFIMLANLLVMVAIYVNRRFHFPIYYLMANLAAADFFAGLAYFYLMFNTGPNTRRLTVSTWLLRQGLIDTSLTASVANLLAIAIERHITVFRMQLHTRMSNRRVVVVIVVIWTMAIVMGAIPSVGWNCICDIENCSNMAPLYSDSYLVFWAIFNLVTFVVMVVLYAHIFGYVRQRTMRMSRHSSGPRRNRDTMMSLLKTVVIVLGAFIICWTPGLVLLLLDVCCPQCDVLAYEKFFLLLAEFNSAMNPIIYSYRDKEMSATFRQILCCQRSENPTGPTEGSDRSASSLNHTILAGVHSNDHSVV

SMILES	EC50
C[C@@H](OC(=O)Nc1c(-c2ccc(NC(=O)C34CC(C#N)(C3)C4)cn2)nnn1C)c1cc(F)cnc1Cl [Compound 167, (R)-1-(2-chloro-5-fluoropyridin-3-yl)ethyl (4-(5-(3-cyanobicyclo[1.1.1]pentane-1-carboxamido)pyridin-2-yl)-1-methyl-1H-1,2,3-triazol-5-yl)carbamate]	99.4 nM
C[C@@H](OC(=O)Nc1c(-c2ccc(NC(=O)C3(C#N)CC3)cn2)nnn1C)c1cc(F)cnc1Cl [Compound 168, (R)-1-(2-chloro-5-fluoropyridin-3-yl)ethyl (4-(5-(1-cyanocyclopropane-1-carboxamido)pyridin-2-yl)-1-methyl-1H-1,2,3-triazol-5-yl)carbamate]	16.2 nM
C[C@@H](OC(=O)Nc1c(-c2ccc(NC(=O)[C@@H]3C[C@H]3F)cn2)nnn1C)c1cccnc1F [Compound 169, (R)-1-(2-fluoropyridin-3-yl)ethyl (4-(5-((1S,2R)-2-fluorocyclopropane-1-carboxamido)pyridin-2-yl)-1-methyl-1H-1,2,3-triazol-5-yl)carbamate]	191 nM
C[C@@H](OC(=O)Nc1c(-c2ccc(NC(=O)C34CC(C(F)(F)F)(C3)C4)cn2)nnn1C)c1cccnc1F [Compound 170, (R)-1-(2-fluoropyridin-3-yl)ethyl (1-methyl-4-(5-(3-(trifluoromethyl)bicyclo[1.1.1]pentane-1-carboxamido)pyridin-2-yl)-1H-1,2,3-triazol-5-yl)carbamate]	31.8 nM
C[C@@H](OC(=O)Nc1c(-c2ccc(NC(=O)C3CC(F)(F)C3)cn2)nnn1C)c1cccnc1F [Compound 171, (R)-1-(2-fluoropyridin-3-yl)ethyl (4-(5-(3,3-difluorocyclobutane-1-carboxamido)pyridin-2-yl)-1-methyl-1H-1,2,3-triazol-5-yl)carbamate]	140 nM
C[C@@H](OC(=O)Nc1c(-c2ccc(NC(=O)C3(C#N)CC3)cn2)nnn1C)c1cccnc1F [Compound 172, (R)-1-(2-fluoropyridin-3-yl)ethyl (4-(5-(1-cyanocyclopropane-1-carboxamido)pyridin-2-yl)-1-methyl-1H-1,2,3-triazol-5-yl)carbamate]	236 nM
C[C@@H](OC(=O)Nc1c(-c2ccc(NC(=O)C34CC(F)(C3)C4)cn2)nnn1C)c1cccnc1F [Compound 173, (R)-1-(2-fluoropyridin-3-yl)ethyl (4-(5-(3-fluorobicyclo[1.1.1]pentane-1-carboxamido)pyridin-2-yl)-1-methyl-1H-1,2,3-triazol-5-yl)carbamate]	181 nM
C[C@@H](OC(=O)Nc1c(-c2ccc(NC(=O)C34CC(C#N)(C3)C4)cn2)nnn1C)c1cccnc1F [Compound 174, (R)-1-(2-fluoropyridin-3-yl)ethyl (4-(5-(3-cyanobicyclo[1.1.1]pentane-1-carboxamido)pyridin-2-yl)-1-methyl-1H-1,2,3-triazol-5-yl)carbamate]	107 nM
Cc1ncc(F)cc1[C@@H](C)OC(=O)Nc1c(-c2ccc(NC(=O)C3CC(F)(F)C3)cn2)nnn1C [Compound 175, (R)-1-(5-fluoro-2-methylpyridin-3-yl)ethyl (4-(5-(3,3-difluorocyclobutane-1-carboxamido)pyridin-2-yl)-1-methyl-1H-1,2,3-triazol-5-yl)carbamate]	35.4 nM
Cc1ncc(F)cc1[C@@H](C)OC(=O)Nc1c(-c2ccc(NC(=O)[C@@H]3C[C@H]3F)cn2)nnn1C [Compound 176, (R)-1-(5-fluoro-2-methylpyridin-3-yl)ethyl (4-(5-((1S,2R)-2-fluorocyclopropane-1-carboxamido)pyridin-2-yl)-1-methyl-1H-1,2,3-triazol-5-yl)carbamate]	253 nM
Cc1ncc(F)cc1[C@@H](C)OC(=O)Nc1c(-c2ccc(NC(=O)C3(C#N)CC3)cn2)nnn1C [Compound 177, (R)-1-(5-fluoro-2-methylpyridin-3-yl)ethyl (4-(5-(1-cyanocyclopropane-1-carboxamido)pyridin-2-yl)-1-methyl-1H-1,2,3-triazol-5-yl)carbamate]	48.3 nM
Cc1ncc(F)cc1[C@@H](C)OC(=O)Nc1c(-c2ccc(NC(=O)C34CC(C#N)(C3)C4)cn2)nnn1C [Compound 178, (R)-1-(5-fluoro-2-methylpyridin-3-yl)ethyl (4-(5-(3-cyanobicyclo[1.1.1]pentane-1-carboxamido)pyridin-2-yl)-1-methyl-1H-1,2,3-triazol-5-yl)carbamate]	140 nM
Cc1ncc(F)cc1[C@@H](C)OC(=O)Nc1c(-c2ccc(NC(=O)C34CC(F)(C3)C4)cn2)nnn1C [Compound 179, (R)-1-(5-fluoro-2-methylpyridin-3-yl)ethyl (4-(5-(3-fluorobicyclo[1.1.1]pentane-1-carboxamido)pyridin-2-yl)-1-methyl-1H-1,2,3-triazol-5-yl)carbamate]	46.5 nM
Cc1ncc(F)cc1[C@@H](C)OC(=O)Nc1c(-c2ccc(NC(=O)[C@@H]3CC3(F)F)cn2)nnn1C [Compound 180, (R)-1-(5-fluoro-2-methylpyridin-3-yl)ethyl (4-(5-((S)-2,2-difluorocyclopropane-1-carboxamido)pyridin-2-yl)-1-methyl-1H-1,2,3-triazol-5-yl)carbamate]	123 nM
CC(OC(=O)Nc1c(-c2ccc(NC(=O)C3(C#N)CC3)cn2)nnn1C)c1ccc(F)nc1Cl (stereo not shown) [Compound 181, 1-(2-chloro-6-fluoropyridin-3-yl)ethyl (4-(5-(1-cyanocyclopropane-1-carboxamido)pyridin-2-yl)-1-methyl-1H-1,2,3-triazol-5-yl)carbamate]	428 nM
CC(=O)Nc1ccc(-c2nnn(C)c2NC(=O)OC(C)c2ccc(F)nc2Cl)nc1 (stereo not shown) [Compound 182, 1-(2-chloro-6-fluoropyridin-3-yl)ethyl (4-(5-acetamidopyridin-2-yl)-1-methyl-1H-1,2,3-triazol-5-yl)carbamate]	2050 nM
C[C@@H](OC(=O)Nc1c(-c2cc(F)c(NC(=O)C3(C#N)CC3)cn2)nnn1C)c1cccnc1Cl [Compound 183, (R)-1-(2-chloropyridin-3-yl)ethyl (4-(5-(1-cyanocyclopropane-1-carboxamido)-4-fluoropyridin-2-yl)-1-methyl-1H-1,2,3-triazol-5-yl)carbamate]	1060 nM
C[C@@H](OC(=O)Nc1c(-c2cc(F)c(NC(=O)C34CC(C#N)(C3)C4)cn2)nnn1C)c1cccnc1Cl [Compound 184, (R)-1-(2-chloropyridin-3-yl)ethyl (4-(5-(3-cyanobicyclo[1.1.1]pentane-1-carboxamido)-4-fluoropyridin-2-yl)-1-methyl-1H-1,2,3-triazol-5-yl)carbamate]	81.8 nM
C[C@@H](OC(=O)Nc1c(-c2ccc(NC(=O)C3(C#N)CC(F)(F)C3)cn2)nnn1C)c1cccnc1Cl [Compound 186, (R)-1-(2-chloropyridin-3-yl)ethyl (4-(5-(1-cyano-3,3-difluorocyclobutane-1-carboxamido)pyridin-2-yl)-1-methyl-1H-1,2,3-triazol-5-yl)carbamate]	100 nM
CNC(=O)Nc1ccc(-c2nnn(C)c2NC(=O)O[C@H](CF)c2cccc(F)c2)nc1 [Compound 187, (S)-2-fluoro-1-(3-fluorophenyl)ethyl (1-methyl-4-(5-(3-methylureido)pyridin-2-yl)-1H-1,2,3-triazol-5-yl)carbamate]	1240 nM
C[C@@H](OC(=O)Nc1c(-c2ccc(NC(=O)N3CCC3)cn2)nnn1C)c1cccnc1Cl [Compound 188, (R)-1-(2-chloropyridin-3-yl)ethyl (4-(5-(azetidine-1-carboxamido)pyridin-2-yl)-1-methyl-1H-1,2,3-triazol-5-yl)carbamate]	452 nM
C[C@@H]1CCN(C(=O)Nc2ccc(-c3nnn(C)c3NC(=O)O[C@H](C)c3cccnc3Cl)nc2)C1 [Compound 190, (R)-1-(2-chloropyridin-3-yl)ethyl (1-methyl-4-(5-((R)-3-methylpyrrolidine-1-carboxamido)pyridin-2-yl)-1H-1,2,3-triazol-5-yl)carbamate]	359 nM
C[C@@H](OC(=O)Nc1c(-c2ccc(NC(=O)N3CC(C#N)C3)cn2)nnn1C)c1cccnc1Cl [Compound 191, (R)-1-(2-chloropyridin-3-yl)ethyl (4-(5-(3-cyanoazetidine-1-carboxamido)pyridin-2-yl)-1-methyl-1H-1,2,3-triazol-5-yl)carbamate]	620 nM
C[C@@H]1CCCN1C(=O)Nc1ccc(-c2nnn(C)c2NC(=O)O[C@H](C)c2cccnc2Cl)nc1 [Compound 192, (R)-1-(2-chloropyridin-3-yl)ethyl (1-methyl-4-(5-((R)-2-methylpyrrolidine-1-carboxamido)pyridin-2-yl)-1H-1,2,3-triazol-5-yl)carbamate]	10000 nM
C[C@@H](OC(=O)Nc1c(-c2ccc(NC(=O)N3CCC(F)(F)C3)cn2)nnn1C)c1cccnc1Cl [Compound 193, (R)-1-(2-chloropyridin-3-yl)ethyl (4-(5-(3,3-difluoropyrrolidine-1-carboxamido)pyridin-2-yl)-1-methyl-1H-1,2,3-triazol-5-yl)carbamate]	287 nM
C[C@@H](OC(=O)Nc1c(-c2ccc(NC(=O)N3CCCC3)cn2)nnn1C)c1cccnc1Cl [Compound 194, (R)-1-(2-chloropyridin-3-yl)ethyl (1-methyl-4-(5-(pyrrolidine-1-carboxamido)pyridin-2-yl)-1H-1,2,3-triazol-5-yl)carbamate]	832 nM
C[C@@H](OC(=O)Nc1c(-c2ccc(NC(=O)[C@H]3CNC(=O)C3)cn2)nnn1C)c1cccnc1Cl [Compound 195, (R)-1-(2-chloropyridin-3-yl)ethyl (1-methyl-4-(5-((R)-5-oxopyrrolidine-3-carboxamido)pyridin-2-yl)-1H-1,2,3-triazol-5-yl)carbamate]	1540 nM
C[C@@H](OC(=O)Nc1c(-c2ccc(NC(=O)CC3OCCO3)cn2)nnn1C)c1cccnc1Cl [Compound 196, (R)-1-(2-chloropyridin-3-yl)ethyl (4-(5 (2-(1,3-dioxolan-2-yl)acetamido)pyridin-2-yl)-1-methyl-1H-1,2,3-triazol-5-yl)carbamate]	1030 nM
